Source: PMC9951859, “Investigation of α,ω-Disubstituted Polyamine-Cholic Acid Conjugates Identifies Hyodeoxycholic and Chenodeoxycholic Scaffolds as Non-Toxic, Potent Antimicrobials” (Antibiotics, 2023)
Values after ≈ are worked out from the molar mass of the structure shown. Values joined by “and” are separate entries in the source; they are usually repeats but may differ in a detail not shown here. Equal entries are not always repeated. “Also recorded” adds a separate entry of the source. Where two headings read alike, the source gives them in different places.

What was measured:
[1] = tested on: S. aureus; experiment: ATP release bioluminescence assay; assay type: cell-based, Staphylococcus aureus; conditions: followed over 30 min after exposure, CTAB (1%) positive control
Method: Solutions of the test compound 7e were prepared in DMSO at various concentrations. A suspension of growing S. aureus to be studied in Muller-Hinton II broth was prepared and incubated at 37 °C. An aliquot (90 µL) of this suspension was added to 10 µL of test compound solution and vortexed for 10 s. Luciferin–luciferase reagent (Yelen, France; 50 µL) was immediately added to this mixture, and luminescent signal quantified with an Infinite M200 microplate reader (Tecan) over a 30 min period; ATP concentration was quantified using internal sample addition. A similar procedure was used for the CTAB positive control.

[2] = tested on: Candida albicans ATCC 90028; experiment: Antimicrobial MIC assay (CO-ADD) against C. albicans; assay type: cell-based; conditions: mean (n = 2)
Source text: (§1) Antimicrobial evaluation against S. aureus (MRSA) (ATCC 43300), E. coli (ATCC 25922), K. pneumoniae (ATCC 700603), A. baumannii (ATCC 19606), C. albicans (ATCC 90028), and C. neoformans (ATCC 208821) was undertaken at the Community for Open Antimicrobial Drug Discovery at The University of Queensland (Australia) according to their standard protocols as reported previously.

[3] = tested on: erythrocytes; design: method as in PMID 11806717; conditions: hemolytic activity; read-out: EC50 for hemoglobin release from erythrocytes; cited from earlier work
[4] = tested on: B lymphoma Wehi-231 cells; design: method as in PMID 19883637; conditions: read-out: EC50 for propidium iodide entry; cited from earlier work
[5] = tested on: HEK293 human embryonic kidney cells; experiment: Cytotoxicity assay on HEK293; assay type: cell-based; conditions: concentration at 50% cytotoxicity on HEK293; mean (n = 2); top dose tested 32 μg/mL
Method: (§2) Cytotoxicity assays were conducted using the protocols previously reported.

[6] = Cytotoxicity assay on HEK293; assay type: cell-based, human; conditions: human, concentration at 50% cytotoxicity on HEK293, mean (n = 2), top dose tested 32 μg/mL
Method: as §2

[7] = tested on: human red blood cells; experiment: Hemolytic assay; assay type: cell-based; conditions: concentration at 10% hemolytic activity on human red blood cells, mean (n = 2), top dose tested 32 μg/mL
Method: Hemolytic assays were conducted using the protocols previously reported.

[8] = tested on: Cryptococcus neoformans ATCC 208821; experiment: Antimicrobial MIC assay (CO-ADD) against C. neoformans; assay type: cell-based
Source text: as §1

[9] = tested on: Escherichia coli ATCC 25922; experiment: Antimicrobial MIC assay (CO-ADD) against E. coli; assay type: cell-based
Source text: as §1

[10] = tested on: Acinetobacter baumannii ATCC 19606; experiment: Antimicrobial MIC assay (CO-ADD) against A. baumannii; assay type: cell-based
Source text: as §1

[11] = tested on: Pseudomonas aeruginosa ATCC 27853; experiment: Antimicrobial MIC assay (CO-ADD) against P. aeruginosa; assay type: cell-based
[12] = tested on: Klebsiella pneumoniae ATCC 700603; experiment: Antimicrobial MIC assay (CO-ADD) against K. pneumoniae; assay type: cell-based
Source text: as §1

[13] = tested on: Bacillus cereus ATCC 11778; experiment: Broth microdilution MIC (CA-SFM), Bacillus cereus; assay type: cell-based; conditions: ATCC11778; classical microdilution, Bacillus cereus ATCC 11778, 18 h at 37 °C
Method: (§3) Additional antimicrobial evaluation against S. aureus (ATCC 25923), S. aureus MRSA (CF-Marseille) and Bacillus cereus (ATCC 11778) was determined in microplates using the standard broth dilution method in accordance with the recommendations of the Comité de l’AntibioGramme de la Société Française de Microbiologie (CA-SFM). Briefly, the minimal inhibitory concentrations (MICs) were determined with an inoculum of 10^5 CFU in 200 µL of MHB containing two-fold serial dilutions of each drug. […] To determine all MICs, the measurements were independently repeated in triplicate.

[14] = tested on: S. aureus ATCC 25923; experiment: Broth microdilution MIC (CA-SFM), S. aureus ATCC 25923; assay type: cell-based; conditions: Staphylococcus aureus, ATCC25923; classical microdilution, S. aureus ATCC 25923, 18 h at 37 °C
Method: as §3

[15] = tested on: P. aeruginosa ATCC 27853; experiment: Antibiotic enhancement of doxycycline; assay type: cell-based, Pseudomonas aeruginosa; conditions: doxycycline at 2 μg/mL
Method: (§4) Restoring enhancer concentrations were determined with an inoculum of 5 × 10^5 CFU in […] of MH broth containing two-fold serial dilutions of each derivative in the presence of either doxycycline or erythromycin at 2 μg/mL. […] These measurements were independently repeated in triplicate.

[16] = tested on: S. aureus MRSA (CF-Marseille); experiment: Broth microdilution MIC (CA-SFM), S. aureus MRSA (CF-Marseille); assay type: cell-based; conditions: Staphylococcus aureus, 18 h
Method: as §3

[17] = tested on: S. aureus MRSA (CF-Marseille); experiment: Real time growth curves, S. aureus MRSA (CF-Marseille); assay type: cell-based, Staphylococcus aureus; conditions: BHI, 1 to 19 h, at 3.2 μM (4 µg/mL) and 12.7 μM (16 µg/mL)
Method: (§5) Solutions of compound 7e at concentrations of 2, 4 and 16 µg/mL were tested each in triplicate against S. aureus ATCC 25923, S. aureus MRSA (CF-Marseille) and Bacillus cereus ATCC 11778. Typically, in a 96 well plate was placed 10 µL of 40, 80 and 320 µg/mL stock solutions of compound 7e as well as 190 µL of a 5 × 10^5 CFU/mL of the selected bacterial suspension in brain heart infusion (BHI) broth. Positive controls containing only 200 µL of a 5 × 10^5 CFU/mL of bacterial suspension in BHI and negative controls containing only 200 µL of BHI broth were added. The plate was incubated at 37 °C in a TECAN Spark Reader […] and real time bacterial growth was followed with OD590 nm measurements every 10 min during 19 h.

[18] = tested on: S. aureus ATCC 25923; experiment: Real time growth curves, S. aureus ATCC 25923; assay type: cell-based, Staphylococcus aureus
Method: as §5

[19] = tested on: Bacillus cereus ATCC 11778; experiment: Minimum bactericidal concentration test, Bacillus cereus; assay type: cell-based
Method: (§6) A pure culture of a specified microorganism was grown overnight, then diluted in growth-supporting broth (typically Mueller Hinton II broth) to a concentration between 1 × 10^5 and 1 × 10^6 CFU/mL. A stock dilution of the antimicrobial test compound was made at approximately 100 times the expected, previously determined MIC. Further 1:1 dilution was made in 96 well microtiter plates. All dilutions of the test compound were inoculated with equal volumes of the specified microorganism (typically 100 µL). […] An aliquot of the positive control was plated and used to establish a baseline concentration of the microorganism used. The microtiter plates were then incubated at 37 °C for 24 h. Turbidity indicates growth of the microorganism, and the MIC is the lowest concentration where no growth was visually observed. To determine the minimum bactericidal concentration (MBC), the dilution representing the MIC and at least two of the more concentrated test product dilutions was plated on a solidified agar plate to determine the bacterial viability. The MBC is the lowest concentration where no growth is encountered when compared to the MIC dilution.

[20] = tested on: E. coli ATCC 25922; experiment: Antibiotic enhancement of erythromycin; assay type: cell-based, Escherichia coli; conditions: erythromycin at 2 μg/mL
Method: as §4

[21] = tested on: Staphylococcus aureus ATCC 43300 (MRSA); experiment: Antimicrobial MIC assay (CO-ADD) against S. aureus MRSA; assay type: cell-based; conditions: Staphylococcus aureus, read-out: MIC S.a.
Source text: as §1

[22] = tested on: S. aureus MRSA (CF-Marseille); experiment: Minimum bactericidal concentration test, S. aureus MRSA (CF-Marseille); assay type: cell-based, Staphylococcus aureus
Method: as §6

[23] = tested on: Bacillus cereus ATCC 11778; experiment: Real time growth curves, Bacillus cereus; assay type: cell-based
Method: as §5

[24] = tested on: S. aureus ATCC 25923; experiment: Minimum bactericidal concentration test, S. aureus ATCC 25923; assay type: cell-based, Staphylococcus aureus
Method: as §6

CCCCCCCCCCCCCCCC[N+](C)(C)C [CTAB, cetyltrimethylammonium bromide, reference compound]
ATP release (extracellular ATP, bioluminescence) [1]: dramatically disrupted the S. aureus membrane after 2 min

CC(C)[C@@H](CC[C@@H](C)[C@H]1CC[C@H]2[C@@H]3[C@H](O)C[C@H]4C[C@@H](NCCCNCCCCN)CC[C@]4(C)[C@H]3CC[C@]12C)OS(=O)(=O)O [Compound 1, Squalamine, reference compound]
MIC ([2]; ATCC90028, Candida albicans ATCC 90028, read-out: MIC C.a.): 4.5 µM (≈ 2.83 µg/mL)
EC50 [3]: 80 µM
EC50 [4]: 51 µM
Cytotoxicity (IC50) [5]: lack of toxicity indicators
IC50 [6]: > 36 µM
Hemolysis (HC10) [7]: >36 µM
Hemolysis (HC10) ([7]; listed as squalamine): lack of toxicity indicators
MIC ([8]; ATCC208821, Cryptococcus neoformans ATCC 208821, mean (n = 2), read-out: MIC C.n.): 0.56 µM (≈ 0.352 µg/mL)
MIC ([9]; ATCC25922, Escherichia coli ATCC 25922, mean (n = 2), read-out: MIC E.c.): ≤ 0.28 µM
MIC ([9]; Escherichia coli ATCC 25922, mean (n = 2), read-out: MIC E.c.): ≤0.28 µM
MIC ([10]; ATCC19606, Acinetobacter baumannii ATCC 19606, mean (n = 2), read-out: MIC A.b.): ≤ 0.28 µM
MIC ([10]; Acinetobacter baumannii ATCC 19606, mean (n = 2), read-out: MIC A.b.): ≤0.28 µM
MIC ([11]; ATCC27853, Pseudomonas aeruginosa ATCC 27853, mean (n = 2), read-out: MIC P.a.): 18 µM (≈ 11.3 µg/mL)
MIC ([12]; ATCC700603, Klebsiella pneumoniae ATCC 700603, mean (n = 2), read-out: MIC K.p.): ≤ 0.28 µM
MIC ([12]; Klebsiella pneumoniae ATCC 700603, mean (n = 2), read-out: MIC K.p.): ≤0.28 µM

C[C@H](CCC(=O)NCCCNCCCCCCCCCCNCCCNC(=O)CC[C@@H](C)[C@H]1CC[C@H]2[C@@H]3C[C@H](O)[C@@H]4C[C@H](O)CC[C@]4(C)[C@H]3CC[C@]12C)[C@H]1CC[C@H]2[C@@H]3C[C@H](O)[C@@H]4C[C@H](O)CC[C@]4(C)[C@H]3CC[C@]12C.O=C(O)C(F)(F)F.O=C(O)C(F)(F)F [Compound 7e, N^1,N^10-Bis(3-((R)-4-((3R,5R,6S,8S,9S,10R,13R,14S,17R)-3,6-dihydroxy-10,13-dimethylhexadecahydro-1H-cyclopenta[a]phenanthren-17-yl)pentanamido)propyl)decane-1,10-diaminium 2,2,2-trifluoroacetate]
MIC ([2]; Candida albicans, ATCC90028, read-out: MIC C.a., Candida albicans ATCC 90028): ≤ 0.2 µM
MIC [13]: 3.2 µM and 4 µg/mL
MIC [14]: 1.6 µM and 2 µg/mL
enhancement of antibiotic activity of doxycycline [15]: No enhancement was observed
MIC [16]: 3.2 µM and 4 µg/mL
IC50 ([6]; HEK293 human embryonic kidney cells): > 25 µM
Hemolysis (HC10) [7]: >25 µM
MIC ([8]; Cryptococcus neoformans, ATCC208821, read-out: MIC C.n.): 0.8 µM
MIC ([9]; Escherichia coli, ATCC25922, read-out: MIC E.c.): > 25 µM
MIC ([10]; Acinetobacter baumannii, ATCC19606, read-out: MIC A.b.): > 25 µM
real time growth inhibition (OD 590 nm) [17]: inhibited all three strains
time after which growth was exhibited ([18]; S. aureus (strain not stated), BHI, lowest tested concentration 1.6 μM (2 µg/mL)): 13 h
real time growth inhibition (OD 590 nm) ([18]; S. aureus ATCC 25923, BHI, 1 to 19 h, at 3.2 μM (4 µg/mL) and 12.7 μM (16 µg/mL)): inhibited all three strains
MBC/MIC ratio ([19]; Bacillus cereus ATCC 11778 (one of three Gram-positive strains)): approximately one
minimum bactericidal concentration (MBC) ([19]; Bacillus cereus ATCC 11778, stated relative to MIC (3.2 μM, 4 μg/mL)): The same values were observed
MIC ([11]; Pseudomonas aeruginosa, ATCC27853, read-out: MIC P.a.): > 25 µM
MIC ([12]; Klebsiella pneumoniae, ATCC700603, read-out: MIC K.p.): > 25 µM
enhancement of antibiotic activity of erythromycin [20]: No enhancement was observed
ATP release (extracellular ATP, bioluminescence) [1]: inability of 7e to induce ATP release; also recorded: failed to cause ATP release
MIC [21]: ≤ 0.2 µM
MBC/MIC ratio ([22]; S. aureus MRSA (CF-Marseille) (one of three Gram-positive strains)): approximately one
minimum bactericidal concentration (MBC) ([22]; S. aureus MRSA (CF-Marseille), stated relative to MIC (3.2 μM, 4 μg/mL)): The same values were observed
time after which growth was exhibited ([23]; B. cereus, BHI, lowest tested concentration 1.6 μM (2 µg/mL)): 10 h
real time growth inhibition (OD 590 nm) ([23]; Bacillus cereus ATCC 11778, BHI, 1 to 19 h, at 3.2 μM (4 µg/mL) and 12.7 μM (16 µg/mL)): inhibited all three strains
MBC/MIC ratio ([24]; S. aureus ATCC 25923 (one of three Gram-positive strains)): approximately one
minimum bactericidal concentration (MBC) ([24]; S. aureus ATCC 25923, stated relative to MIC (1.6 μM, 2 μg/mL)): The same values were observed
